Reference: patent US20260116944A1, “NOVEL TRIPLE GLP-1/GIP/GLUCAGON RECEPTOR AGONIST AND A PHARMACEUTICAL COMPOSITION FOR PREVENTING OR TREATING OBESITY COMPRISING THE SAME” (HANMI PHARM. CO., LTD., priority 2022, published 2026)
*1 amine or outer side, *2 acyl side, *3 side chain or, on linkers, in order; H or OH if unused. Bridges are numbered along the chain shown (N, C = ends). Where no end group is shown, it is not given here. Side-chain parts run from the residue outwards. [ ]: non-standard residue; d: D form. The star is where a group is joined. C20 diacid = O=C(O)CCCCCCCCCCCCCCCCCCC(=O)*; γGlu = O=C(O)[C@H](CCC(=O)[*:2])N[*:1]; AEEA = NCCOCCOCC(=O)O; Aib = CC(C)(N)C(=O)O

Test: Weight loss effect in AMLN diet-induced obese mice
Assay type: in vivo
Settings: 351 ug/kg, Q2D, subcutaneously, 2 weeks, vs. excipient control, p<0.001 one-way ANOVA, FIG. 1
Description: In order to confirm the weight loss effect of each of the three triple agonists of SEQ ID NO: 1, SEQ ID NO: 2, and SEQ ID NO: 4 prepared in the Example above, an AMLN (amylin) mouse model, known as an obesity model, was used. AMLN diet-induced mice were divided into an excipient control group and groups administered with three types of triple agonists (351 ug/kg, Q2D, subcutaneously), and the administration was repeated for 2 weeks.
After repeated administration for 2 weeks, the body weight was measured, and the change in body weight relative to the body weight immediately before administration (DO) was measured to evaluate weight loss effect.

| Substance | weight loss efficacy (change in body weight relative to immediately before administration) |
| --- | --- |
| Y-Aib-QGTFTSDYSK(1)YLDEKRAKEFVQWLLDHHPSSGQPPPS (Y[Aib]QGTFTSDYSK([AEEA-AEEA-γGlu-C20 diacid])YLDEKRAKEFVQWLLDHHPSSGQPPPS-NH2; lactam 16-20; N-terminus assumed; SMILES CC(C)C[C@H](NC(=O)[C@H](Cc1ccc(O)cc1)NC(=O)[C@H](CCCCNC(=O)COCCOCCNC(=O)COCCOCCNC(=O)CC[C@H](NC(=O)CCCCCCCCCCCCCCCCCCC(=O)O)C(=O)O)NC(=O)[C@H](CO)NC(=O)[C@H](Cc1ccc(O)cc1)NC(=O)[C@H](CC(=O)O)NC(=O)[C@H](CO)NC(=O)[C@@H](NC(=O)[C@H](Cc1ccccc1)NC(=O)[C@@H](NC(=O)CNC(=O)[C@H](CCC(N)=O)NC(=O)C(C)(C)NC(=O)[C@@H](N)Cc1ccc(O)cc1)[C@@H](C)O)[C@@H](C)O)C(=O)N[C@@H](CC(=O)O)C(=O)N[C@H]1CCC(=O)NCCCC[C@@H](C(=O)N[C@@H](CCC(=O)O)C(=O)N[C@@H](Cc2ccccc2)C(=O)N[C@H](C(=O)N[C@@H](CCC(N)=O)C(=O)N[C@@H](Cc2c[nH]c3ccccc23)C(=O)N[C@@H](CC(C)C)C(=O)N[C@@H](CC(C)C)C(=O)N[C@@H](CC(=O)O)C(=O)N[C@@H](Cc2c[nH]cn2)C(=O)N[C@@H](Cc2c[nH]cn2)C(=O)N2CCC[C@H]2C(=O)N[C@@H](CO)C(=O)N[C@@H](CO)C(=O)NCC(=O)N[C@@H](CCC(N)=O)C(=O)N2CCC[C@H]2C(=O)N2CCC[C@H]2C(=O)N2CCC[C@H]2C(=O)N[C@@H](CO)C(N)=O)C(C)C)NC(=O)[C@H](C)NC(=O)[C@H](CCCNC(=N)N)NC(=O)[C@H](CCCCN)NC1=O) [SEQ ID NO: 2, acylated triple agonist peptide, K(1) at position 12, lactam bridge E16-K20] | significant weight loss efficacy |
| Y-Aib-QGTFTSDYSK(1)YLDEKAAKEFVQWLLDHHPSSGQPPPS (Y[Aib]QGTFTSDYSK([AEEA-AEEA-γGlu-C20 diacid])YLDEKAAKEFVQWLLDHHPSSGQPPPS-NH2; lactam 16-20; N-terminus assumed; SMILES CC(C)C[C@H](NC(=O)[C@H](Cc1ccc(O)cc1)NC(=O)[C@H](CCCCNC(=O)COCCOCCNC(=O)COCCOCCNC(=O)CC[C@H](NC(=O)CCCCCCCCCCCCCCCCCCC(=O)O)C(=O)O)NC(=O)[C@H](CO)NC(=O)[C@H](Cc1ccc(O)cc1)NC(=O)[C@H](CC(=O)O)NC(=O)[C@H](CO)NC(=O)[C@@H](NC(=O)[C@H](Cc1ccccc1)NC(=O)[C@@H](NC(=O)CNC(=O)[C@H](CCC(N)=O)NC(=O)C(C)(C)NC(=O)[C@@H](N)Cc1ccc(O)cc1)[C@@H](C)O)[C@@H](C)O)C(=O)N[C@@H](CC(=O)O)C(=O)N[C@H]1CCC(=O)NCCCC[C@@H](C(=O)N[C@@H](CCC(=O)O)C(=O)N[C@@H](Cc2ccccc2)C(=O)N[C@H](C(=O)N[C@@H](CCC(N)=O)C(=O)N[C@@H](Cc2c[nH]c3ccccc23)C(=O)N[C@@H](CC(C)C)C(=O)N[C@@H](CC(C)C)C(=O)N[C@@H](CC(=O)O)C(=O)N[C@@H](Cc2c[nH]cn2)C(=O)N[C@@H](Cc2c[nH]cn2)C(=O)N2CCC[C@H]2C(=O)N[C@@H](CO)C(=O)N[C@@H](CO)C(=O)NCC(=O)N[C@@H](CCC(N)=O)C(=O)N2CCC[C@H]2C(=O)N2CCC[C@H]2C(=O)N2CCC[C@H]2C(=O)N[C@@H](CO)C(N)=O)C(C)C)NC(=O)[C@H](C)NC(=O)[C@H](C)NC(=O)[C@H](CCCCN)NC1=O) [SEQ ID NO: 1, acylated triple agonist peptide, K(1) at position 12, lactam bridge E16-K20, C-terminus amidated] | significant weight loss efficacy |
